{"source": "patent US20200398077A1", "about": "“SYSTEM AND METHOD TO ERADICATE A MAJORITY OF DISEASE-CAUSING GERMS AND PRODUCE AVIRULENT PHENOTYPE SURVIVORS SUSCEPTIBLE TO MICROBICIDES USING A LIGHT DOSE REGIMENT” (priority 2019, published 2020)", "key": {"[1]": {"test_system": "Depigmented Generation 1 avirulent phenotype survivors (MRSA G1)", "experiment": "Kirby-Bauer zones of inhibition (ZOI) antibiotic susceptibility assay, depigmented survivor Generation 1", "format": "cell-based, S. aureus", "conditions": "for Susceptibility class (CLSI) / Zone diameter: Depigmented Generation 1 after light dose regiment, Kirby-Bauer ZOI; for Resistance/susceptibility in words (heatmap profile, FIG. 8): MRSA G1 (Generation 1), panel 122, after light dose regiment", "protocol": "(§1) Table 7 below show and example of a Clinical laboratories Science Institute (CLSI) reference table typically used by clinicians and clinical microbiology laboratories to establish whether a clinical isolate is susceptible, intermediate or resistant to a particular type of antibiotic under the Kirby-Bauer ZOI assay:\n(§2) In one example, the Kirby-bauer Zones of Inhibition (Z01) assay was performed on the untreated MRSA parent strain and the two generations of the depigmented avirulent phenotype survivors susceptible to microbicides were created by applying the light dose regiment of system 10 and the method thereof discussed above based on the CLSI guidelines, See Table 8 below:\n(§3) The first generation (G1) is the avirulent phenotype survivors susceptible to microbicides created by system 10 and the method thereof and the second generation (G2) is the avirulent phenotype survivors susceptible to microbicides created by system 10 and the method thereof. In this example, the ZOI for Linezolid is indicated at 90, the ZOI for Norfloxacin is indicated at 92, the ZOI for Cefprozil is indicated at 94, ZOEs 96 and 98 are blank, ZOI 100 is for Rifampin, ZIO 102 is for Oxacillin and ZOI 104 is for Tetracycline. The growth control for Generation 1 (G1), Generation 2 (G2) and the wild type (WT) is indicated at 106, 108 and 110, respectively. In this example, Methicillin Resistant, S. aureus ATCC 33592. In this example, WT is Oxacillin is considered equivalent to methicillin when describing a MRSA strain. In this example, the ZOIs were measured at 24 hours and 72-hours past-challenge. Generation 1 was serially passaged onto an antibiotic-free TSA plate, then transferred to TSB liquid culture prior to performing the ZOI assay. Generation 2 was transferred from Generation 1, serially passaged onto an antibiotic-free TSA plate, then transferred to a TSB liquid culture prior to performing the ZOI assay. […] Thus, the avirulent phenotype survivors susceptible to microbicides are stable over multiple generations.\n(§4) See e.g., Clinical and Laboratory Standards Institute, Performance Standards for Antimicrobial Susceptibility Testing, 29th Edition 950 West Valley Road Suite 2500, Wayne, Pa. 19087 USA, in this example Oxacillin is synonymous with methicillin when describing MRSA."}, "[2]": {"test_system": "Depigmented Generation 2 avirulent phenotype survivors (MRSA G2)", "experiment": "Kirby-Bauer zones of inhibition (ZOI) antibiotic susceptibility assay, depigmented survivor Generation 2", "format": "cell-based, S. aureus", "conditions": "for Susceptibility class (CLSI) / Zone diameter: Depigmented Generation 2 after light dose regiment, Kirby-Bauer ZOI; for Resistance/susceptibility in words (heatmap profile, FIG. 8): MRSA G2 (Generation 2), panel 124, after light dose regiment", "protocol": "as §1, §2, §3, §4"}, "[3]": {"test_system": "S. aureus ATCC 33592 (MRSA) Parental Wild-Type", "experiment": "Kirby-Bauer zones of inhibition (ZOI) antibiotic susceptibility assay, untreated MRSA parent strain", "format": "cell-based", "conditions": "for Resistance/susceptibility in words (heatmap profile, FIG. 8): Parental Wild-Type, panel 120, CLSI M100-ED29:2019; for Susceptibility class (CLSI) / Zone diameter: S. aureus ATCC 33592 (MRSA), untreated parent, Kirby-Bauer ZOI", "protocol": "as §1, §2, §3, §4"}}, "data": [{"compound": "CC=CC1=C(C(=O)O)N2C(=O)[C@@H](NC(=O)[C@H](N)c3ccc(O)cc3)[C@H]2SC1", "note": "[Cefprozil]", "values": [{"measurement": "Susceptibility class (CLSI)", "setting": "[1]", "result": "S"}, {"measurement": "Zone diameter", "setting": "[1]", "result": 42.99, "unit": "mm"}, {"measurement": "Resistance/susceptibility in words (heatmap profile, FIG. 8)", "setting": "[1]", "result": "susceptible"}, {"measurement": "Susceptibility class (CLSI)", "setting": "[2]", "result": "S"}, {"measurement": "Zone diameter", "setting": "[2]", "result": 42.98, "unit": "mm"}, {"measurement": "Resistance/susceptibility in words (heatmap profile, FIG. 8)", "setting": "[2]", "result": "susceptible"}, {"measurement": "Resistance/susceptibility in words (heatmap profile, FIG. 8)", "setting": "[3]", "result": "resistant"}, {"measurement": "Susceptibility class (CLSI)", "setting": "[3]", "result": "R"}, {"measurement": "Zone diameter", "setting": "[3]", "result": "No Inhibition"}]}, {"compound": "CC(=O)NC[C@H]1CN(c2ccc(N3CCOCC3)c(F)c2)C(=O)O1", "note": "[Linezolid]", "values": [{"measurement": "Susceptibility class (CLSI)", "setting": "[1]", "result": "S"}, {"measurement": "Zone diameter", "setting": "[1]", "result": 35.11, "unit": "mm"}, {"measurement": "Susceptibility class (CLSI)", "setting": "[2]", "result": "S"}, {"measurement": "Zone diameter", "setting": "[2]", "result": 32.8, "unit": "mm"}, {"measurement": "Resistance/susceptibility in words (heatmap profile, FIG. 8)", "setting": "[3]", "result": "susceptible"}, {"measurement": "Susceptibility class (CLSI)", "setting": "[3]", "result": "S"}, {"measurement": "Zone diameter", "setting": "[3]", "result": 31.33, "unit": "mm"}]}, {"compound": "CCn1cc(C(=O)O)c(=O)c2cc(F)c(N3CCNCC3)cc21", "note": "[Norfloxacin]", "values": [{"measurement": "Susceptibility class (CLSI)", "setting": "[1]", "result": "S"}, {"measurement": "Zone diameter", "setting": "[1]", "result": 32.68, "unit": "mm"}, {"measurement": "Susceptibility class (CLSI)", "setting": "[2]", "result": "S"}, {"measurement": "Zone diameter", "setting": "[2]", "result": 30.17, "unit": "mm"}, {"measurement": "Resistance/susceptibility in words (heatmap profile, FIG. 8)", "setting": "[3]", "result": "susceptible"}, {"measurement": "Susceptibility class (CLSI)", "setting": "[3]", "result": "S"}, {"measurement": "Zone diameter", "setting": "[3]", "result": 27.67, "unit": "mm"}]}, {"compound": "Cc1onc(-c2ccccc2)c1C(=O)N[C@@H]1C(=O)N2[C@@H]1SC(C)(C)[C@@H]2C(=O)O", "note": "[Oxacillin]", "values": [{"measurement": "Susceptibility class (CLSI)", "setting": "[1]", "result": "S"}, {"measurement": "Zone diameter", "setting": "[1]", "result": 28.04, "unit": "mm"}, {"measurement": "Resistance/susceptibility in words (heatmap profile, FIG. 8)", "setting": "[1]", "result": "susceptible"}, {"measurement": "Susceptibility class (CLSI)", "setting": "[2]", "result": "S"}, {"measurement": "Zone diameter", "setting": "[2]", "result": 27.25, "unit": "mm"}, {"measurement": "Resistance/susceptibility in words (heatmap profile, FIG. 8)", "setting": "[2]", "result": "susceptible"}, {"measurement": "Resistance/susceptibility in words (heatmap profile, FIG. 8)", "setting": "[3]", "result": "resistant"}, {"measurement": "Susceptibility class (CLSI)", "setting": "[3]", "result": "R"}, {"measurement": "Zone diameter", "setting": "[3]", "result": "No Inhibition"}]}, {"compound": "CO[C@H]1/C=C/O[C@@]2(C)Oc3c(C)c(O)c4c(O)c(c(/C=N/N5CCN(C)CC5)c(O)c4c3C2=O)NC(=O)/C(C)=C\\C=C\\[C@H](C)[C@H](O)[C@@H](C)[C@@H](O)[C@@H](C)[C@H](OC(C)=O)[C@@H]1C", "note": "[Rifampin]", "values": [{"measurement": "Susceptibility class (CLSI)", "setting": "[1]", "result": "S"}, {"measurement": "Zone diameter", "setting": "[1]", "result": 45.04, "unit": "mm"}, {"measurement": "Resistance/susceptibility in words (heatmap profile, FIG. 8)", "setting": "[1]", "result": "susceptible"}, {"measurement": "Susceptibility class (CLSI)", "setting": "[2]", "result": "S"}, {"measurement": "Zone diameter", "setting": "[2]", "result": 48.68, "unit": "mm"}, {"measurement": "Resistance/susceptibility in words (heatmap profile, FIG. 8)", "setting": "[2]", "result": "susceptible"}, {"measurement": "Resistance/susceptibility in words (heatmap profile, FIG. 8)", "setting": "[3]", "result": "resistant"}, {"measurement": "Susceptibility class (CLSI)", "setting": "[3]", "result": "R"}, {"measurement": "Zone diameter", "setting": "[3]", "result": "No Inhibition"}]}, {"compound": "CN(C)[C@@H]1C(O)=C(C(N)=O)C(=O)[C@@]2(O)C(O)=C3C(=O)c4c(O)cccc4[C@@](C)(O)[C@H]3C[C@@H]12", "note": "[Tetracycline]", "values": [{"measurement": "Susceptibility class (CLSI)", "setting": "[1]", "result": "S"}, {"measurement": "Zone diameter", "setting": "[1]", "result": 34.66, "unit": "mm"}, {"measurement": "Susceptibility class (CLSI)", "setting": "[2]", "result": "S"}, {"measurement": "Zone diameter", "setting": "[2]", "result": 31.31, "unit": "mm"}, {"measurement": "Susceptibility class (CLSI)", "setting": "[3]", "result": "R"}]}]}
